# Data published in article PMC5075052, “Modulation of the Substitution Pattern of 5-Aryl-2-Aminoimidazoles Allows Fine-Tuning of Their Antibiofilm Activity Spectrum and Toxicity” (Antimicrobial Agents and Chemotherapy, 2016).
# Where two headings read alike, the source gives them in different places.
# How the values were obtained:
# E. coli TG1 = experiment: Monospecies bacterial biofilm inhibition, static peg assay; format: cell-based, Escherichia coli; details: Escherichia coli
# Protocol: (§1) A static peg assay, described previously ([27], [74]), was used for bacterial biofilm formation. The Calgary biofilm device consists of a platform carrying 96 polystyrene pegs (Nunc no. 445497) that fits as a microtiter plate lid, with 1 peg hanging into each microtiter plate well (Nunc no. 269789). Twofold serial dilutions of the compounds (dissolved in 100% dimethyl sulfoxide [DMSO] or ethanol) in 100 μl liquid broth (TSB diluted 1/20) per well were prepared in the microtiter plate in duplicate or triplicate with a maximum concentration of 1,600 μM and a minimum concentration of 0.8 μM. Subsequently, an overnight culture of S. Typhimurium ATCC 14028, P. aeruginosa PA14, E. coli TG1, S. epidermidis, S. aureus SH1000, or S. aureus ATCC 6538 (all grown in LB) was diluted 1:100 into TSB diluted 1/20 (or TSB for S. epidermidis, S. aureus SH1000, and S. aureus ATCC 6538), whereas overnight cultures of S. liquefaciens MG44 and B. cepacia LMG1222T were diluted 1:50 into TSB diluted 1/20. P. gingivalis ATCC 33277 cultures were diluted in TSB diluted 1/20 to have a final concentration of 1 × 10^8 cells/ml. Next, 100 μl was added to each well of the microtiter plate, resulting in a total volume of 200 μl medium per well (final concentration range of compounds, 800 μM [2% DMSO or ethanol] to 0.4 μM [0.001% DMSO or ethanol]). In the next step, the pegged lid was placed on the microtiter plate and the plate was incubated for 24 h or 48 h at 25°C or 37°C without shaking. At 37°C, the plates were placed in a sealed container with wet towels on the bottom to prevent evaporation of the growth medium. Biofilms of P. gingivalis ATCC 33277 were grown anaerobically at 37°C for 72 h. During this incubation period, biofilms were formed on the surface of the pegs. After incubation, the optical density at 600 nm (OD600) for the planktonic cells in the microtiter plate was measured using a Synergy MX multimode reader (BioTek, Winooski, VT). This gives a first indication of the effect of the compounds on planktonic growth. For quantification of biofilm formation, the pegs were washed once in 200 μl PBS. The remaining attached bacteria were stained for 30 min with 200 μl 0.1% (wt/vol) crystal violet in an isopropanol-methanol-PBS solution (1:1:18, vol/vol). Excess stain was rinsed off by placing the pegs in a 96-well plate filled with 200 μl distilled water per well. After air drying of the pegs (30 min), the dye bound to the adherent biofilm was extracted with 30% glacial acetic acid (200 μl per well of a 96-well plate). The optical density at 570 nm (OD570) of each well was measured using a Synergy MX multimode reader (BioTek, Winooski, VT). The concentration of each compound needed to inhibit biofilm formation by 50% (BIC50) and the concentration of each compound needed to inhibit planktonic growth by 50% (IC50) were determined from the concentration gradient by using nonlinear curve fitting (GraphPad Prism software, version 5; GraphPad Software, Inc., La Jolla, CA). In the same assay, the effect on planktonic growth was evaluated. The activity was considered biofilm specific if the BIC50 was at least two times lower than the IC50. Data represent the means from at least 3 technical repeats with the corresponding 95% confidence intervals (provided in the supplemental material).
# S. aureus ATCC 6538 = experiment: Monospecies bacterial biofilm inhibition, static peg assay (Calgary device, crystal violet; planktonic OD600); format: cell-based, Staphylococcus aureus; details: Staphylococcus aureus, ATCC6538, S. aureus ATCC 6538, 37°C
# Protocol: as §1
# [1] = tested on: E. coli TG1 + P. aeruginosa PA14; experiment: Mixed-species E. coli-P. aeruginosa biofilm assay (peg, crystal violet); format: cell-based, Escherichia coli + Pseudomonas aeruginosa
# Protocol: Overnight cultures of E. coli TG1 and P. aeruginosa PA14 were diluted 1/100 in the same vial of TSB diluted 1/20 to form a mixed-culture suspension. Next, 2-fold serial dilutions of the compounds (dissolved in 100% DMSO or ethanol) in 100 μl liquid broth (TSB diluted 1/20) per well were prepared in the microtiter plate of the Calgary biofilm device (Nunc no. 269789) in duplicate or triplicate with a maximum concentration of 1,600 μM and a minimum concentration of 0.8 μM. One hundred microliters of the mixed-culture suspension was added to each well of the microtiter plate, resulting in a total volume of 200 μl medium per well (final concentration range of compounds, 800 μM [2% DMSO or ethanol] to 0.4 μM [0.001% DMSO or ethanol]). The pegged lid was placed on the microtiter plate, and the plate was incubated for 72 h at 37°C, which allowed biofilm formation on the pegs (Nunc no. 269789) of the Calgary biofilm device. After 72 h, the biofilm was colored with crystal violet as described above ([74]). The OD570 (biofilm cells) and OD600 (planktonic cells) were measured, and the BIC50 and the IC50, respectively, were calculated.
# P. aeruginosa PA14 = experiment: Monospecies bacterial biofilm inhibition, static peg assay; format: cell-based, Pseudomonas aeruginosa; details: Pseudomonas aeruginosa
# Protocol: as §1
# [2] = tested on: S. aureus ATCC 6538 + S. epidermidis; experiment: Mixed-species S. aureus-S. epidermidis biofilm assay (peg, crystal violet); format: cell-based, Staphylococcus aureus + Staphylococcus epidermidis; details: 37°C
# Protocol: Overnight cultures of S. aureus ATCC 6538 and S. epidermidis were grown in LB medium and were diluted 1/200 in the same vial of TSB to form a mixed-culture suspension. Next, 2-fold serial dilutions of the compounds (dissolved in 100% DMSO or ethanol) in 100 μl TSB medium per well were prepared in the microtiter plate (Nunc no. 269789) in duplicate or triplicate with a maximum concentration of 1,600 μM and a minimum concentration of 0.8 μM. One hundred microliters of the mixed-culture suspension was added to each well of the microtiter plate, resulting in a total volume of 200 μl medium per well (final concentration range of compounds, 800 μM [2% DMSO or ethanol] to 0.4 μM [0.001% DMSO or ethanol]). The cells were then incubated for 48 h at 37°C, which allowed biofilm formation on the pegs (Nunc no. 269789) of the Calgary biofilm device. After 24 h, fresh medium with compounds was added to the wells, and after 48 h, the biofilm was colored with crystal violet as described above ([74]). The OD570 (biofilm) and OD600 (planktonic) were measured, and the BIC50 and the IC50, respectively, were calculated.
# [3] = TG1, E. coli TG1, 25°C, read-out: BIC50
# [4] = TG1, E. coli TG1, 25°C, read-out: IC50 (planktonic growth)
# [5] = TG1, E. coli TG1, 37°C, read-out: BIC50
# [6] = TG1, E. coli TG1, 37°C, read-out: IC50 (planktonic growth)
# [7] = planktonic OD600, read-out: IC50 (concentration needed to inhibit planktonic growth by 50%)
# [8] = read-out: BIC50 (concentration needed to inhibit biofilm formation by 50%)
# [9] = mixed E. coli TG1 + P. aeruginosa PA14, 37°C, read-out: IC50 (planktonic growth)
# [10] = mixed E. coli TG1 + P. aeruginosa PA14 biofilm, 37°C, read-out: BIC50
# [11] = PA14, P. aeruginosa PA14, 25°C, read-out: BIC50
# [12] = PA14, P. aeruginosa PA14, 25°C, read-out: IC50 (planktonic growth)
# [13] = PA14, P. aeruginosa PA14, 37°C, read-out: BIC50
# [14] = PA14, P. aeruginosa PA14, 37°C, read-out: IC50 (planktonic growth)
# [15] = mixed S. aureus ATCC 6538 + S. epidermidis biofilm, read-out: BIC50
# [16] = mixed S. aureus ATCC 6538 + S. epidermidis, read-out: IC50 (planktonic growth)
IC50 (E. coli TG1; [3]) [µM],IC50 (E. coli TG1; [4]) [µM],IC50 (E. coli TG1; [5]) [µM],IC50 (E. coli TG1; [6]) [µM],"IC50 [1, 9] [µM]","IC50 [1, 10] [µM]",IC50 (P. aeruginosa PA14; [11]) [µM],IC50 (P. aeruginosa PA14; [12]) [µM],IC50 (P. aeruginosa PA14; [13]) [µM],IC50 (P. aeruginosa PA14; [14]) [µM],"IC50 [2, 15] [µM]","IC50 [2, 16] [µM]",SMILES,IC50 (S. aureus ATCC 6538; [7]) [µM],IC50 (S. aureus ATCC 6538; [8]) [µM]
29.1,> 400,306,370,> 400,400,> 400,> 400,> 400,> 400,2,~22.5,CCCCCCCCn1c(-c2ccc(Cl)cc2)cnc1NC1CCCC1 [Compound 8f],~24.1,6.7
43,> 400,> 400,237,> 400,> 400,> 400,> 400,> 400,> 400,~5.6,15.5,CCCCCCCCn1c(-c2ccc(Br)cc2)cnc1NC1CCCC1 [Compound 8g],19.1,8.5
> 400,> 400,> 400,> 400,> 400,> 400,> 400,> 400,> 400,> 400,4.9,~25.1,CCCCCCCCn1c(-c2ccc(Cl)c(Cl)c2)cnc1NC1CCCC1 [Compound 8h],19.5,3.8
